# Laboratory results: ChEMBL document CHEMBL5360531, “Pyrazolone derivatives as potent and selective small-molecule SIRT5 inhibitors” (Eur J Med Chem, 2023)
# Target: T1, NAD-dependent protein deacylase sirtuin-5, mitochondrial (Homo sapiens, UniProt Q9NXA8)
# Assay: Inhibition of human SIRT5
# T1 sequence (Q9NXA8 whole entry): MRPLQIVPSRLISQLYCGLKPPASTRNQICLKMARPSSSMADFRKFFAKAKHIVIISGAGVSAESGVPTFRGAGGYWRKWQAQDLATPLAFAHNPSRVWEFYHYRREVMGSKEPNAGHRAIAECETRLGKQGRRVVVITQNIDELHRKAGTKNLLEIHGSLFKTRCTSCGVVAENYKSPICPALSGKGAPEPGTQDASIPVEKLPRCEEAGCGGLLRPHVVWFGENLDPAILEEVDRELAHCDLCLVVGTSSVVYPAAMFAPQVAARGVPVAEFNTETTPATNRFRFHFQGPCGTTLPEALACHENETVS
row,IC50,Structure (SMILES)
1,2200 nM,N=C(N)NCCC[C@@H]1NC(=O)CCC(=O)NCCCC[C@@H](C(N)=O)NC(=O)[C@H](CCCCNC(=S)NCCC(=O)O)NC1=O

# Target: T1, NAD-dependent protein deacylase sirtuin-5, mitochondrial
# Assay: Inhibition of human SIRT5 by fluorescence based analysis
row,IC50,Structure (SMILES)
1,15.8 µM,COC(=O)c1ccc(/C=C2/C(=O)N(c3nc(-c4cccc(OC)c4)cs3)N=C2C)cc1
2,1.82 µM,COc1ccc(-c2csc(N3N=C(C)/C(=C\c4ccc(C(=O)O)cc4)C3=O)n2)cc1
3,12.5 µM,CC1=NN(c2nc(-c3ccc(Br)cc3)cs2)C(=O)/C1=C/c1ccc(Cl)cc1
4,4.18 µM,CC1=NN(c2nc(-c3ccccc3F)cs2)C(=O)/C1=C/c1ccc(C(=O)O)cc1
5,13.8 µM,CC1=NN(c2nc(-c3ccccc3F)cs2)C(=O)/C1=C/c1ccc(C#N)cc1
6,2.84 µM,COC(=O)c1ccc(/C=C2/C(=O)N(c3nc(-c4ccc(C(F)(F)F)cc4)cs3)N=C2C)cc1
7,0.52 µM,CC1=NN(c2nc(-c3ccc(C(F)(F)F)cc3)cs2)C(=O)/C1=C/c1ccc(C(=O)O)cc1
8,5.26 µM,COC(=O)c1ccc(/C=C2/C(=O)N(c3nc(-c4ccc(C#N)cc4)cs3)N=C2C)cc1
9,6.28 µM,CC1=NN(c2nc(-c3ccc(F)cc3)cs2)C(=O)/C1=C/c1ccc(Cl)cc1
10,10.6 µM,COC(=O)c1ccc(/C=C2/C(=O)N(c3nc(-c4cccc(F)c4)cs3)N=C2C)cc1
11,22.6 µM,COc1ccc(-c2csc(N3N=C(C)/C(=C\c4ccc(Cl)cc4)C3=O)n2)cc1
12,5.54 µM,COc1ccccc1-c1csc(N2N=C(C)/C(=C\c3ccc(C(=O)O)cc3)C2=O)n1
13,2.56 µM,COC(=O)c1ccc(/C=C2/C(=O)N(c3nc(-c4ccc(Cl)cc4)cs3)N=C2C)cc1
14,4.45 µM,CC1=NN(c2nc(-c3cccc(C)c3)cs2)C(=O)/C1=C/c1ccc(C(=O)O)cc1
15,16.5 µM,COC(=O)c1ccc(/C=C2/C(=O)N(c3nc(-c4cccc(C#N)c4)cs3)N=C2C)cc1
16,7.56 µM,CC1=NN(c2nc(-c3ccc(Cl)cc3)cs2)C(=O)/C1=C/c1ccc(Cl)cc1
17,12.7 µM,COC(=O)c1ccc(/C=C2/C(=O)N(c3nc(-c4ccccc4F)cs3)N=C2C)cc1

row,IC50,Structure (SMILES)
1,4.16 µM,CC1=NN(c2nc(-c3cccc(C#N)c3)cs2)C(=O)/C1=C/c1ccc(C(=O)O)cc1
2,0.85 µM,CC1=NN(c2nc(-c3ccc(F)cc3)cs2)C(=O)/C1=C/c1ccc(C(=O)O)cc1
3,20.6 µM,COC(=O)c1ccc(/C=C2/C(=O)N(c3nc(-c4ccccc4OC)cs3)N=C2C)cc1
4,6.54 µM,COC(=O)c1ccc(/C=C2/C(=O)N(c3nc(-c4ccc(C)cc4)cs3)N=C2C)cc1
5,12.8 µM,COC(=O)c1ccc(/C=C2/C(=O)N(c3nc(-c4ccc(O)cc4)cs3)N=C2C)cc1
6,5.83 µM,COC(=O)c1ccc(/C=C2/C(=O)N(c3nc(-c4ccc(F)cc4)cs3)N=C2C)cc1
7,36.8 µM,COc1ccc(-c2csc(N3N=C(C)/C(=C\c4ccc(C)cc4)C3=O)n2)cc1
8,3.08 µM,COc1cccc(-c2csc(N3N=C(C)/C(=C\c4ccc(C(=O)O)cc4)C3=O)n2)c1
9,20.5 µM,COC(=O)c1ccc(/C=C2/C(=O)N(c3nc(-c4cccc(C)c4)cs3)N=C2C)cc1
10,1.28 µM,CC1=NN(c2nc(-c3ccc(C)cc3)cs2)C(=O)/C1=C/c1ccc(C(=O)O)cc1
11,10.2 µM,COC(=O)c1ccc(/C=C2/C(=O)N(c3nc(-c4ccc(OC)cc4)cs3)N=C2C)cc1
12,1.92 µM,CC1=NN(c2nc(-c3ccc(O)cc3)cs2)C(=O)/C1=C/c1ccc(C(=O)O)cc1
13,1.86 µM,CC1=NN(c2nc(-c3cccc(F)c3)cs2)C(=O)/C1=C/c1ccc(C(=O)O)cc1
14,1.05 µM,CC1=NN(c2nc(-c3ccc(C#N)cc3)cs2)C(=O)/C1=C/c1ccc(C(=O)O)cc1
15,4.36 µM,COC(=O)c1ccc(/C=C2/C(=O)N(c3nc(-c4ccc(Br)cc4)cs3)N=C2C)cc1
16,2.28 µM,COC(=O)c1ccc(/C=C2/C(=O)N(c3nc(-c4cccc(C(F)(F)F)c4)cs3)N=C2C)cc1
17,1.72 µM,CC1=NN(c2nc(-c3ccc(Br)cc3)cs2)C(=O)/C1=C/c1ccc(C(=O)O)cc1
